Source: US10759822B2 (priority 2016, dated 2020)

How the values were obtained:
[1] = tested on: field EPSP in the rat dentate gyrus; conditions: in vivo, ip; cited from earlier work
[2] = mouse, in vivo; for MRT0-t: Kunming, iv, 1 mg/kg
[3] = mouse, in vivo

Structure (SMILES)	increase in the amplitude of the field EPSP [1]	(AUC0-t)prodrug/(AUC0-t)prototype drug [2]	(AUC0-t)prodrug group/(AUC0-t)prototype drug group [3]	MRT0-t [2]
O=C(c1ccc2nccnc2c1)N1CCCCC1 [CX516, 6-(piperidin-1-yl-carbonyl)quinoxaline]	9%	–	–	–
CCSS/C(CCOC(=O)CCC(=O)OC1CCC(N(C)C(=O)c2ccc3nonc3c2)CC1)=C(/C)N(C)C=O (stereo not drawn) [Compound 1, Succinic acid anti-4-[(benzo[c][1,2,5]oxadiazole-5-carbonyl)-methyl-amino]-cyclohexyl ester 3-ethyldisulfanyl-4-(formyl-methyl-amino)-pent-3-enyl ester]	–	1.55	0.48	–
CCCSS/C(CCOC(=O)CCC(=O)OC1CCC(N(C)C(=O)c2ccc3nonc3c2)CC1)=C(/C)N(C)C=O (stereo not drawn) [Compound 2, Succinic acid anti-4-[(benzo[c][1,2,5]oxadiazole-5-carbonyl)-methyl-amino]-cyclohexyl ester 3-propyldisulfanyl-4-(formyl-methyl-amino)-pent-3-enyl ester]	–	1.72	0.49	–
C/C(=C(\CCOC(=O)CCC(=O)OC1CCC(N(C)C(=O)c2ccc3nonc3c2)CC1)SSC(C)C)N(C)C=O (stereo not drawn) [Compound 3, Succinic acid anti-4-[(benzo[c][1,2,5]oxadiazole-5-carbonyl)-methyl-amino]-cyclohexyl ester 3-isopropyldisulfanyl-4-(formyl-methyl-amino)-pent-3-enyl ester]	–	1.77	0.62	–
CCCCSS/C(CCOC(=O)CCC(=O)OC1CCC(N(C)C(=O)c2ccc3nonc3c2)CC1)=C(/C)N(C)C=O (stereo not drawn) [Compound 4, Succinic acid anti-4-[(benzo[c][1,2,5]oxadiazole-5-carbonyl)-methyl-amino]-cyclohexyl ester 3-butyldisulfanyl-4-(formyl-methyl-amino)-pent-3-enyl ester]	–	1.56	0.68	–
C/C(=C(\CCOC(=O)CCC(=O)OC1CCC(N(C)C(=O)c2ccc3nonc3c2)CC1)SSCC(C)C)N(C)C=O (stereo not drawn) [Compound 5, Succinic acid anti-4-[(benzo[c][1,2,5]oxadiazole-5-carbonyl)-methyl-amino]-cyclohexyl ester 3-isobutyldisulfanyl-4-(formyl-methyl-amino)-pent-3-enyl ester]	–	1.70	0.67	–
CCCCCSS/C(CCOC(=O)CCC(=O)OC1CCC(N(C)C(=O)c2ccc3nonc3c2)CC1)=C(/C)N(C)C=O (stereo not drawn) [Compound 6, Succinic acid anti-4-[(benzo[c][1,2,5]oxadiazole-5-carbonyl)-methyl-amino]-cyclohexyl ester 3-pentyldisulfanyl-4-(formyl-methyl-amino)-pent-3-enyl ester]	–	1.88	0.62	–
C/C(=C(\CCOC(=O)CCC(=O)OC1CCC(N(C)C(=O)c2ccc3nonc3c2)CC1)SSCCC(C)C)N(C)C=O (stereo not drawn) [Compound 7, Succinic acid anti-4-[(benzo[c][1,2,5]oxadiazole-5-carbonyl)-methyl-amino]-cyclohexyl ester 3-isopentyldisulfanyl-4-(formyl-methyl-amino)-pent-3-enyl ester]	–	1.49	0.53	–
C/C(=C(\CCOC(=O)CCC(=O)OC1CCC(N(C)C(=O)c2ccc3nonc3c2)CC1)SSCc1ccccc1)N(C)C=O (stereo not drawn) [Compound 8, Succinic acid anti-4-[(benzo[c][1,2,5]oxadiazole-5-carbonyl)-methyl-amino]-cyclohexyl ester 3-benzyldisulfanyl-4-(formyl-methyl-amino)-pent-3-enyl ester]	–	1.73	0.62	–
CCSS/C(CCOC(=O)CCCC(=O)OC1CCC(N(C)C(=O)c2ccc3nonc3c2)CC1)=C(/C)N(C)C=O (stereo not drawn) [Compound 9, Pentanedioic acid anti-4-[(benzo[c][1,2,5]oxadiazole-5-carbonyl)-methyl-amino]-cyclohexyl ester 3-ethyldisulfanyl-4-(formyl-methyl-amino)-pent-3-enyl ester]	–	1.74	0.51	–
CCCSS/C(CCOC(=O)CCCC(=O)OC1CCC(N(C)C(=O)c2ccc3nonc3c2)CC1)=C(/C)N(C)C=O (stereo not drawn) [Compound 10, Pentanedioic acid anti-4-[(benzo[c][1,2,5]oxadiazole-5-carbonyl)-methyl-amino]-cyclohexyl ester 3-propyldisulfanyl-4-(formyl-methyl-amino)-pent-3-enyl ester]	–	1.86	0.47	–
C/C(=C(\CCOC(=O)CCCC(=O)OC1CCC(N(C)C(=O)c2ccc3nonc3c2)CC1)SSC(C)C)N(C)C=O (stereo not drawn) [Compound 11, Pentanedioic acid anti-4-[(benzo[c][1,2,5]oxadiazole-5-carbonyl)-methyl-amino]-cyclohexyl ester 3-isopropyldisulfanyl-4-(formyl-methyl-amino)-pent-3-enyl ester]	–	1.92	0.72	–
CCCCSS/C(CCOC(=O)CCCC(=O)OC1CCC(N(C)C(=O)c2ccc3nonc3c2)CC1)=C(/C)N(C)C=O (stereo not drawn) [Compound 12, Pentanedioic acid anti-4-[(benzo[c][1,2,5]oxadiazole-5-carbonyl)-methyl-amino]-cyclohexyl ester 3-butyldisulfanyl-4-(formyl-methyl-amino)-pent-3-enyl ester]	–	1.92	0.46	–
C/C(=C(\CCOC(=O)CCCC(=O)OC1CCC(N(C)C(=O)c2ccc3nonc3c2)CC1)SSCC(C)C)N(C)C=O (stereo not drawn) [Compound 13, Pentanedioic acid anti-4-[(benzo[c][1,2,5]oxadiazole-5-carbonyl)-methyl-amino]-cyclohexyl ester 3-isobutyldisulfanyl-4-(formyl-methyl-amino)-pent-3-enyl ester]	–	1.96	0.60	–
CCCCCSS/C(CCOC(=O)CCCC(=O)OC1CCC(N(C)C(=O)c2ccc3nonc3c2)CC1)=C(/C)N(C)C=O (stereo not drawn) [Compound 14, Pentanedioic acid anti-4-[(benzo[c][1,2,5]oxadiazole-5-carbonyl)-methyl-amino]-cyclohexyl ester 3-pentyldisulfanyl-4-(formyl-methyl-amino)-pent-3-enyl ester]	–	1.98	0.65	–
C/C(=C(\CCOC(=O)CCCC(=O)OC1CCC(N(C)C(=O)c2ccc3nonc3c2)CC1)SSCc1ccccc1)N(C)C=O (stereo not drawn) [Compound 16, Pentanedioic acid anti-4-[(benzo[c][1,2,5]oxadiazole-5-carbonyl)-methyl-amino]-cyclohexyl ester 3-benzyldisulfanyl-4-(formyl-methyl-amino)-pent-3-enyl ester]	–	1.86	0.41	–
CCSS/C(CCOC(=O)CCCC(=O)OC1CCC(N(C)C(=O)c2ccc3nonc3c2)CC1)=C(/C)N(C=O)CC (stereo not drawn) [Compound 17, Pentanedioic acid anti-4-[(benzo[c][1,2,5]oxadiazole-5-carbonyl)-methyl-amino]-cyclohexyl ester 3-ethyldisulfanyl-4-(formyl-ethyl-amino)-pent-3-enyl ester]	–	1.55	0.61	–
CCCN(C=O)/C(C)=C(/CCOC(=O)CCCC(=O)OC1CCC(N(C)C(=O)c2ccc3nonc3c2)CC1)SSCC (stereo not drawn) [Compound 18, Pentanedioic acid anti-4-[(benzo[c][1,2,5]oxadiazole-5-carbonyl)-methyl-amino]-cyclohexyl ester 3-ethyldisulfanyl-4-(formyl-propyl-amino)-pent-3-enyl ester]	–	1.70	0.73	–
C/C(=C(\CCOC(=O)CCCC(=O)OC1CCC(N(C)C(=O)c2ccc3nonc3c2)CC1)SSCCC(C)C)N(C=O)CC(=O)OCC1OC(O)C(O)C(O)C1O [Compound 19, Pentanedioic acid anti-4-[(benzo[c][1,2,5]oxadiazole-5-carbonyl)-methyl-amino]-cyclohexyl ester 3-isopentyldisulfanyl-4-[formyl-(D-glucos-6-yl-carbonylmethyl)-amino]-pent-3-enyl ester]	–	1.41	0.73	–
CCSS/C(CCOC(=O)CCCC(=O)OC1CCC(N(C)C(=O)c2ccc3nonc3c2)CC1)=C(/C)N(C=O)CC(=O)OCC1OC(O)C(O)C(O)C1O [Compound 20, Pentanedioic acid anti-4-[(benzo[c][1,2,5]oxadiazole-5-carbonyl)-methyl-amino]-cyclohexyl ester 3-ethyldisulfanyl-4-[formyl-(D-glucos-6-yl-carbonylmethyl)-amino]-pent-3-enyl ester]	–	1.65	0.82	–
CCCCCCSS/C(CCOC(=O)CCCC(=O)OC1CCC(N(C)C(=O)c2ccc3nonc3c2)CC1)=C(/C)N(C=O)CC(=O)OCC1OC(O)C(O)C(O)C1O [Compound 21, Pentanedioic acid anti-4-[(benzo[c][1,2,5]oxadiazole-5-carbonyl)-methyl-amino]-cyclohexyl ester 3-hexyldisulfanyl-4-[formyl-(D-glucos-6-yl-carbonylmethyl)-amino]-pent-3-enyl ester]	–	1.68	–	1.91 h
CCSS/C(CCOC(=O)CCCC(=O)OC1CCC(N(C)C(=O)c2ccc3nonc3c2)CC1)=C(/C)N(C=O)CC(=O)OCC(O)C1OC(=O)C(O)=C1O (stereo not drawn) [Compound 22, Pentanedioic acid anti-4-[(benzo[c][1,2,5]oxadiazole-5-carbonyl)-methyl-amino]-cyclohexyl ester 3-ethyldisulfanyl-4-{[2-(3,4-dihydroxy-5-oxo-2,5-dihydro-furan-2-yl)-2-hydroxy-ethoxycarbonylmethyl]-formyl-amino}-pent-3-enyl ester]	–	1.82	–	2.00 h
